Data on one molecule can be found in patent publication US20190231688A1, “METHOD OF ADMINISTERING EMULSION FORMULATIONS OF AN NK-1 RECEPTOR ANTAGONIST” (Heron Therapeutics, Inc., priority 2018, published 2019).

A short description of this series: Pharmacokinetics of aprepitant emulsion versus fosaprepitant solution, intravenous. The conditions noted are these: rat, 14 mg/kg aprepitant equivalent. The series is classed as in vivo, male Sprague-Dawley rats. As for the experimental part:
The pharmacokinetics of an aprepitant emulsion prepared according to Example 1 was determined. Two groups of six male Sprague-Dawley rats each were injected intravenously with, respectively, fosaprepitant in solution or aprepitant emulsion prepared according to Example 1. All drugs were administered at an effective concentration equivalent to 14 mg/kg aprepitant. Blood from all rats was collected at the appropriate time intervals and processed to plasma by centrifugation. Plasma samples were analyzed by LC-MS/MS for aprepitant and fosaprepitant, as appropriate. A plasma concentration versus time curve of aprepitant for the emulsion described in Example 1 and for fosaprepitant is presented in FIG. 2 (fosaprepitant in solution, •; aprepitant emulsion, ▴). The curves indicate the initial aprepitant level reached immediately after injection of the aprepitant emulsion was almost 3 times higher than the initial aprepitant level reached immediately after injection of the fosaprepitant solution.

For `C[C@@H](O[C@H]1OCCN(Cc2nc(O)n(P(=O)(O)O)n2)[C@H]1c1ccc(F)cc1)c1cc(C(F)(F)F)cc(C(F)(F)F)c1` [fosaprepitant], the “Conversion of fosaprepitant to aprepitant” value is reported as “delay in the conversion of fosaprepitant to aprepitant”.
